In US20090074885A1, “Reversible Hydrophobic Modification of Drugs for Improved Delivery to Cells” (Roche Madison Inc., priority 2003, published 2009):

Legend:
Hepa 1-6 cells = test: Calcein AM live cell marker after prodrug treatment; assay type: cell-based, mouse; conditions: following treatment with prodrug
Procedure: (§1) In Vitro cellular uptake of PI, RRH-PI compounds, and IV evaluated by fluorescence measurements. PI and the RRH-prodrugs were tested for cellular uptake on several cell lines which included B16 (murine melanoma), Hepa 1-6 (mouse hepatoma), SK-OV-3 (also SKOV-3, human ovarian carcinoma), OVCAR-3 (human ovarian carcinoma), Jurkat (human T-lymphocyte), 293 (human embryonic kidney), and MC38 (mouse colon carcinoma) cells. Adherent cells were plated at 2.5×10^5 cells/well on 6-well plates 24 h prior to testing. The growth media was removed from individual wells and the drug/prodrug was immediately added to the well with the mixing chamber. Final drug/prodrug concentrations were 0.150 μmol in 220 μl total volume (20 μl OS, 200 μl ITG). After 30 sec the drug solution was removed (aspirated) and 2 ml complete media was added to the cells. […] Fluorescent microscopy studies were conducted with a three laser LSM 510 confocal microscope, an Axiovert S100 fluorescent microscope, or an Axioplan2 fluorescent microscope (all Zeiss) equipped with filter sets for the rhodamine fluorescence channel (λex=BP 450/12, λem=LP 590 nm filter set) and the fluorescein fluorescent channel (λex=BP 546/90, λem=LP 515 nm filter set). […]

cells = test: SYTOX Green dead cell indicator after prodrug treatment; assay type: cell-based; conditions: following treatment with prodrug
Procedure: as §1

[1] = system: SK-OV-3 peritoneal tumors; test: Direct application / IP injection in mouse model of disseminated peritoneal ovarian cancer; assay type: in vivo, nude mice; conditions: two weeks after SK-OV-3 inoculation, direct application or IP injection
Procedure: BDMODS-PI and C12PMMA-PI show enhanced drug uptake by surface tissue and microtumors following IP and intraperitoneal perfusion chemotherapy (IPPC) application in a mouse tumor model. For establishment of the cancer model, 2×10^6 SK-OV-3 cells were injected IP into nude mice. The mice were examined at two weeks following cell inoculation, or at the first manifestation of ascites (about 4-5 wks). Tissue samples were fixed in 10% NBF, routinely processed, stained with H&E stain, and subjected to histopathological analysis. […] At 4-5 weeks after SK-OV-3 cell inoculation, maximum tumor size increased to 5-7 mm with the bulk of cancer development present as about 0.1 to about 1 mm microtumors (FIG. 9). At 5 wks most peritoneal surfaces were affected by growing cancer cells, coating both the visceral and parietal peritoneum, e.g. liver, pancreas, and diaphragm. […]
Two weeks following cell inoculation, the abdominal cavity was opened and the drug mixture was directly applied on the duodenum and ovary/uterus/fallopian tubes (220 μL of drug-OS/ITG over 30 sec). […] Cellular uptake of the prodrug was stronger at the surface of the metastases, but also readily detectable in the middle of the small tumors (tumor size about 0.5 to about 1 mm; FIG. 7-8). […]

SK-OV-3 ovarian tumors = test: Intraperitoneal perfusion chemotherapy (IPPC) in SK-OV-3 mouse model; assay type: in vivo
Procedure: In a separate experiment, ovarian cancer development was monitored until signs of ascitis (4-5 wks). At this time, a test IPPC injection was conducted with C12PMMA-PI by adapting methodology typically used for peritoneal perfusion. Briefly, two 23 G Abbocath-T effluent catheters with multiple perforations were inserted into the peritoneal cavity and advanced to the region of the ovaries on both sides of the vertebra. The ascitic fluid was slowly aspirated with minimal negative pressure. Then an additional 23 G perforated catheter was inserted into abdomen and positioned on top of abdominal organs. 1 mL of drug/DMF/ITG solution was infused over 1 min, followed by repeated gentle massage. 5-7 min post administration, peritoneal fluid was again aspirated, and the peritoneal cavity was perfused with 10 mL of PBS via the top catheter, together with simultaneous aspiration via the lower two catheters. Special care was taken to avoid elevated abdominal pressure during the procedure. […] Confocal microscopy indicated a similar staining pattern as observed previously, with strong propidium iodide nuclear labeling of all of the outer cells exposed to peritoneal cavity, including ovarian tumors. […] All cells exposed to peritoneal cavity and thereby to the prodrug solution indicated prodrug uptake and staining, including: mesentery cells, outer layer of cells of abdominal organs, and disseminated peritoneal ovarian tumors. The tumor lesions still appeared to be more susceptible to drug uptake, indicating both greater tissue penetration and intense PI^+-staining as compared to normal abdominal tissue, with the exception of the mesentery which was also was heavily PI^+.

Row | Compound | cells both PI and calcein positive (Hepa 1-6 cells) | cells both PI-positive and SYTOX Green positive (cells) | labeling of peritoneal tumors [1] | labeling of microtumors (0.1-1 mm) (SK-OV-3 ovarian tumors) | depth of labeling of large tumors (5-7 mm) (SK-OV-3 ovarian tumors; 4-5 wks after inoculation) | survival of the perfusion procedure (SK-OV-3 ovarian tumors; sacrificed 3-5 h later)
1 | CCCCCCCCCCCCCCCCCC[Si](C)(C)Nc1ccc2c(c1)c(-c1ccccc1)[n+](CCC[N+](C)(CC)CC)c1cc(N[Si](C)(C)CCCCCCCCCCCCCCCCCC)ccc21.[I-].[I-] [II, 3,8-bis[((dimethyl)octadecylsilazyl)amine] 5-(3,3-diethyl-3-methylammoniumpropyl) 6-phenyl phenanthridinium diiodide] | approximately 86% | less than 5% | intensely labeled |  |  | 
2 | CCCCCCCCCCCCNC(=O)CCC(=CCC(=O)O)C(=O)Nc1ccc2c(c1)c(-c1ccccc1)[n+](CCC[N+](C)(CC)CC)c1cc(NC(=O)C(=CCC(=O)O)CCC(=O)NCCCCCCCCCCCC)ccc21.[I-].[I-] [III, 3,8-bis-[2-(2 carboxyethylidene)-4-(dodecarbamoyl)-1-oxo-butylamine] 5-(3,3-diethyl-3-methylammoniumpropyl) 6-phenyl phenanthridinium diiodide] |  |  | intensely labeled | heavily labeled throughout the tumor | about 500 microns | All animals survived the perfusion well
